Data as given in US11071550B2, “Methods and devices for treating pancreatitis” (priority 2017, dated 2021).
Values belong to the compound of their own block, whether it stands above or below them.

Experiments:
mouse pancreas [1] = tested on: mouse pancreas
monkey pancreas = details: 1% acetic acid
Description: Cynomologus monkeys can be used to study the retrograde infusion protocol in primates. […] The Cynomologus monkeys are first quarantined for 30 days, then transferred to the primate facility and given a 1 to 2-week acclimatization period before operating. After acclimatization, the animals undergo a laparotomy and duodenotomy with cannulation of the ampulla of Vater and temporary clamping of the common bile duct to prevent perfusion of the liver (additional details below).
Fluoroscopic dye can also be infused to confirm the location and positioning of the catheter (FIGS. 12A and 12B). […] The catheter and clamp are then removed and the surgery completed.
Cynomologus infusion procedure details: After induction of general anesthesia, the abdomen is prepped and draped and a 10 to 12 centimeter upper abdominal midline incision created. The duodenum is fully mobilized out of the retroperitoneum and a non-crushing clamp applied to the common bile duct to prevent the composition from perfusing the bile duct and liver. A two centimeter duodenotomy is then created to expose the ampulla of Vater, which is cannulated with a 2.8 French double lumen umbilical artery catheter. A clamp is then placed on the minor papilla and catheter to prevent back leaking of the composition. […]
During the 3 to 6-week period between the procedure and the sacrifice, Cynomologus monkeys are supplied with CREON enzymes as a dietary supplement to avoid malabsorption due to loss of acinar enzyme production by the pancreas. […] Throughout the 3 to 6-week period, the Cynomologus monkeys are monitored for scleral icterus as a sign of possible biliary obstruction due to bile duct structuring caused by the infusion.
At harvest, the pancreas and duodenum are examined grossly in situ, and then removed en bloc along with the common bile duct. […] In addition, beta cell mass is calculated based on the percent insulin positive area on histology along with the gross weight of the pancreas.

[2] = tested on: ligated tail of the pancreas
Description: Mouse pancreatic duct ligation (PDL) yields a model that is reflective of chronic pancreatitis with progressive loss of islet tissue. In the PDL procedure, the pancreatic duct is ligated at the mid-point of the pancreas (FIG. 4, right image). Thus, only the distal half (tail) of the pancreas is affected since the ligation is positioned at the mid-point of the duct. […] FIGS. 5A-5E show insulin staining using DAB, whereas FIGS. 5F-5J show insulin and amylase staining using immunofluorescence (with a Hoescht counterstain for labeling cell nuclei).
The negative effects of a pancreatitis milieu on β-cell function are well known (17).
Five repeats are analyzed in each condition. […] Significance is considered when p<0.05.

mouse pancreas [3] = tested on: mouse pancreas; remark: listed apart in the source
Mouse islets = test: In vitro static glucose stimulated insulin secretion (GSIS) of isolated islets
[4] = 100% ethanol infused at 8 weeks post-PDL
[5] = 100% ethanol, 1, 3, 6, 9 months

islets (histology) (mouse pancreas [1]; 1% acetic acid): remained intact
open field testing: rearing (time pressed) vs sham group (mouse pancreas [1]; 1% acetic acid): not significantly different
pain (mouse pancreas [1]; 1% acetic acid, conclusion from open field testing): does not cause pain
open field testing: distance traveled vs sham group (mouse pancreas [1]; 1% acetic acid, distance in meters): not significantly different
recovery from the infusion procedure (monkey pancreas; e.g. 7 milliliters at 500 centimeters of water): recover well
islets (H&E) (monkey pancreas; three weeks after infusion): intact islets
Structure (SMILES): CC(=O)O [acetic acid]
immunohistochemistry of treated pancreatic tissue (insulin, amylase) (mouse pancreas [1]; 1% acetic acid): insulin positive and amylase negative
exocrine tissue (mouse pancreas [1]; 1% acetic acid, 6 months (FIG. 7)): ablation of the exocrine tissue
ablation of the exocrine pancreas (monkey pancreas; three weeks after infusion): ablation of the exocrine pancreas in the head and body of the pancreas, and part of the tail

Structure (SMILES): CCO [ethanol]
loss of islets in the pancreatic tail [2, 4]: prevents the loss of islets in the pancreatic tail
recurrent inflammation [2, 4]: no detectable recurrent inflammation
regeneration of acinar cells ([2]; 100% ethanol infused at 8 weeks post-PDL, insulin and amylase staining): no detectable regeneration of acinar cells
β-cell mass in the ligated tail ([2]; PDL + ethanol infusion at 8 weeks, 24 weeks, mean±SEM): 0.61±0.01 milligrams
fasting blood glucose levels vs PDL and sham operated ([2]; PDL+ethanol-infused, 24 weeks): no different
glucose tolerance testing vs PDL and sham operated ([2]; PDL+ethanol-infused, 24 weeks): no different
jaundice rates ([2]; male, C57BL/6, mouse, in vivo): less than 5%
time to significant levels of ethanol in the blood after infusion (mouse pancreas [3]; 100% ethanol pancreatic ductal infusion): ≤ 5 min
pancreatic acinar tissue upon sacrifice (mouse pancreas [3]; 100% ethanol, 100 microliters, sacrifice at 1, 3, 6, 9 months): no evidence of pancreatic acinar tissue
amylase (AMY) staining (mouse pancreas [3]; [5]): absent at all time points
pancreatic endocrine tissue (β-cells and alpha cells) (mouse pancreas [3]; [5]): well-preserved
endocrine function: in vivo insulin levels during glucose tolerance testing (mouse pancreas [3]; 100% ethanol, 9-month time point): appears normal
islet vasculature (CD31 staining) (mouse pancreas [3]; 100% ethanol, 9 months): appears to be intact
fasting glucose levels vs sham-operated controls (mouse pancreas [3]; 100% ethanol, all time points): no difference
glucose tolerance tests vs sham-operated controls (mouse pancreas [3]; 100% ethanol, all time points): no difference
body weight vs controls (mouse pancreas [3]; 100% ethanol, elemental diet): not different from controls
β-cell mass vs sham-operated (mouse pancreas [3]; 100% ethanol, pancreatic tail, any time point): no significant difference
fasting glucose levels vs sham operated controls (mouse pancreas [1]; Example 2, all time points): no difference
glucose tolerance tests vs sham operated controls (mouse pancreas [1]; Example 2, all time points): no difference
insulin secretion by islets from the pancreatic tail (in vitro GSIS) (Mouse islets; PDL+ethanol-infused tail islets, per 200 islets, low or high glucose, vs sham): normal insulin secretion pattern
endocrine function: in vitro glucose-stimulated insulin secretion (GSIS) (Mouse islets; islets from 100% ethanol-infused mice, 9-month time point): appears normal
